Assay [1] deals with soft rot of Chinese cabbage. Put plainly: Test for controlling soft rot of Chinese cabbage, Example 3 / Comparative Example 3 (field, cultivar Muso). The class given is in vivo. The conditions noted are these: 500 g ai/10 a, 150 L/10 a sprayed onto planting holes before planting, 51 days after start. From the text: (§1) Frequency of the disease=[sigma(number of plants with the onset of the disease at each severity level*index of the onset of the disease)/(plants examined*4)]*100
(§2) Disease control value=[1-(frequency of the disease in the treated lot/frequency of the disease in the non-treated lot)]*100
(§3) • 0: No onset • 1: Onset in some of outer leaves (shippable) • 2: Onset in outer leaves and some of head leaves (by removing damaged parts, the resulting cabbage can be shipped as small cabbage but is ranked as grade B). • 3: Most of head leaves are inflicted with the onset of the disease or with severer damages (not shippable) • 4: Whole cabbage plant is inflicted with the onset of the disease and is dead.
442 g/l kresoxim-methyl (STROBY FLOWABLE [trade name], manufactured by BASF) was adjusted to 500 g ai/10a (0.5 g/m^2, 1131 ml Product/10a) as the amount of the active ingredient and to 150 L/10a as the volume of diluent water. […]
51 days after the start of the tests, all the plants in each lot were examined about the severity level of the disease to assess the frequency of the disease and the disease control value. The frequency of the disease and the disease control value were determined in the same manner as described above. Because soft rot is a disease with damages hardly controlled, herein, even a chemical at the level C determined by the tests of the effects can practically be used.

For assay [2], the system named is bacteria causing the soft rot (Erwinia carotovora). The assay is described as follows: Inhibition test of growth of bacteria causing soft rot, Reference Test Example 6. The format is cell-based. Particulars: for formed colonies (growth state), grade: PSA medium, 27 degrees Celsius, 3 days. From the text: (§4) An inhibition test of the growth of bacteria causing the soft rot was done, when a control agent was directly applied to the bacteria causing the soft rot. A given volume of each pesticide of fludioxonil (Seibia FL [trade name] manufactured by Syngenta Japan K.K.), iminoctadine albesilate salt (Bellkute WP [trade name], manufactured by Nippon Soda Co., Ltd.), iprodione (Rovral WP [trade name] manufactured by Bayer Crop Science Co., Ltd.), and streptomycin (Mycin Wettable powder [trade name] manufactured by Hokko Chemical Industry Co., Ltd.) was added together with a suspension of the bacteria causing the soft rot (Erwinia carotovora) to a preliminarily dissolved PSA culture medium (55 degrees Celsius) for subsequent thorough agitation, which was then spread on a plate for culturing at 27 degrees Celsius for 3 days, to examine the growth state. Subsequently, the formed colonies were examined according to the following three grades. • +: at the same level as the level of non-treated lot.
(§5) Plus or minus: apparently less than the colonies of the non-treated lot. • −: almost no colonies observed.

In assay [3] the test system is soft rot of Chinese cabbage. The assay is described as follows: Test for controlling soft rot of Chinese cabbage, Example 1 / Comparative Example 1 (field, cultivar Muso). The class given is in vivo. The conditions noted are these: 250 g ai/10 a, 150 L/10 a sprayed onto planting holes before planting, 54 days after start. As for the experimental part: 200 g/l Azoxystrobin (Amistar 20 FLOWABLE [trade name], manufactured by Syngenta Japan K.K.) was adjusted to 250 g ai/10a (0.25 g/m^2, 1250 ml Product/10a) as the amount of the active ingredient and to 150 L/10a as the volume of diluent water.
100 g/l Cyazofamid (RANMAN FLOWABLE [trade name], manufactured by Ishihara Sangyo Kaisha, Ltd.) was adjusted to 250 g ai/10a (0.25 g/m^2, 2500 ml Product/10a) as the amount of the active ingredient and to 150 L/10a as the volume of diluent water.
177 g/l Amisulbrom (LEIMAY FLOWABLE [trade name], manufactured by Nissan Chemical Industries, Ltd.) was adjusted individually to 250 g ai/10a (0.25 g/m^2, 1412 ml Product/10a) as the amount of the active ingredient and to 150 L/10a as the volume of diluent water.
After spreading an agricultural mulch-sheet and opening planting holes (diameter of about 9 cm) for permanent planting through the mulch-sheet, the spray solutions prepared as described above were sprayed onto the planting holes such that the amount of treated active ingredient of each spray solution was 0.25 g/m^2 (150 L per 10a), followed by air-drying; subsequently, seedlings of Chinese cabbage (cultivar: Muso) grown for 4 weeks in cell mold trays (128 holes/nursery box) were planted such that 30 seedlings were planted in each test lot having an area of 6 m^2 with two replications.
(§6) Preparation was performed by diluting streptomycin (Mycin 20 wettable powder solution [under the trade name] manufactured by Hokko Chemical Industry Co., Ltd.) with water to 1/1000.
In a field spread with the agricultural mulch-sheet, Chinese cabbage seedlings (cultivar: Muso) grown by the same method as in Example 1 were planted by the same method as in Example 1, for spraying the spray solution of streptomycin prepared above in (1) (at each spray volume of 300 L/10a) three times (13 days, 20 days and 27 days after the planting of the seedlings) on the stems and leaves.
54 days after the start of the tests, all the plants in each lot were examined about the severity level of the disease; according to the following equations, the ratio of the plants with the onset of the disease, the frequency of the disease, and the disease control value were calculated to determine and rank the effects at A to D levels. Because soft rot is a disease with damages hardly controlled, herein, even a chemical at the level C determined by the tests of the effects can practically be used.
Ratio of the plants with the onset of the disease=(Number of plants with the onset of the disease/number of plants examined)*100
Frequency of the disease=[sigma(number of plants with the onset of the disease at each severity level*index of the onset of the disease)/(plants examined*4)]*100 […]

Assay [4] relates to bacteria causing the soft rot (Erwinia carotovora). Put plainly: Inhibition test of growth of bacteria causing soft rot, Reference Test Example 1. The format is cell-based. Particulars: for formed colonies (growth state), grade: PSA medium, 25 degrees Celsius, 4 days. How it is done:
as §4, with “cyazofamid (RANMAN 400SC” for “fludioxonil (Seibia FL”, “Ishihara Sangyo Kaisha, Ltd.), amisulbrom (LEIMAY FLOWABLE” for “Syngenta Japan K.K.), iminoctadine albesilate salt (Bellkute WP”, “Nissan Chemical Industries, Ltd.)” for “Nippon Soda Co., Ltd.), iprodione (Rovral WP [trade name] manufactured by Bayer Crop Science Co., Ltd.),”, “25” for “27”, “4” for “3”
as §5

Assay [5] relates to soft rot of Chinese cabbage. The assay is described as follows: Test for controlling soft rot of Chinese cabbage, Example 2 / Comparative Example 2 (field, cultivar Harebutai 65). The format is in vivo. Particulars: 500 g ai/10 a, 150 L/10 a sprayed onto planting holes before planting, 64 days after start.
Text: as §1, §2, §3
200 g/l Azoxystrobin (Amistar 20 FLOWABLE [trade name], manufactured by Syngenta Japan K.K.) was adjusted to 500 g ai/10a (0.5 g/m^2, 2500 ml Product/10a) as the amount of the active ingredient and to 150 L/10a as the volume of diluent water.
30% w/w triflumizol (TRIFUMIN WP [trade name], manufactured by Nippon Soda Co., Ltd.) was adjusted to 500 g ai/10a (0.5 g/m^2, 1667 g Product/10a) as the amount of the active ingredient and to 150 L/10a as the volume of diluent water.
100 g/1 cyazofamid (RANMAN PLOWABLE [trade name], manufactured by Ishihara Sangyo Kaisha, Ltd.) was adjusted to 500 g ai/10a (0.5 g/m^2, 5000 ml Product/10a) as the amount of the active ingredient and to 150 L/10a as the volume of diluent water.
50% w/w penthiopyrad (GAIA WG [trade name], manufactured by Mitsui Chemicals Agro, Inc.) was adjusted to 500 g ai/10a (0.5 g/m^2, 1000 g Product/10a) as the amount of the active ingredient and to 150 L/10a as the volume of diluent water.
50 g/l flusulfamide (SCABLOCK SC [trade name], manufactured by Mitsui Chemicals Agro, Inc.) was adjusted to 500 g ai/10a (0.5 g/m^2, 10000 ml Product/10a) as the amount of the active ingredient and to 150 L/10a as the volume of diluent water.
400 g/1 chlorothalonil (Daconil 1000 [the trade name], manufactured by Sumitomo Chemical, Limited) was adjusted to 1000 g ai/10a (1.0 g/m^2, 2500 ml Product/10a) as the amount of the active ingredient and to 150 L/10a as the volume of diluent water.
After spreading an agricultural mulch-sheet and opening planting holes (diameter of about 5 cm) for permanent planting through the mulch-sheet, the spray solutions prepared as described above were sprayed onto the planting holes such that the amount of treated active ingredient of chlorothalonil was 1.0 g/m^2 (150 L per 10a) and the amount of each of the remaining spray solutions was 0.5 g/m^2 (150 L per 10a), followed by air-drying; subsequently, seedlings of Chinese cabbage (cultivar Harebutai 65) grown for 4 weeks in cell mold trays (128 holes/nursery box) were planted such that 19 seedlings were planted in each test lot having an area of 2.4 m^2 with two replications.
as §6
In a field spread with the agricultural mulch-sheet, Chinese cabbage seedlings (cultivar: Harebutai 65) grown by the same method as in Example 2 were planted by the same method as in Example 2, for spraying the spray solution of streptomycin prepared above in (1) (at each spray volume of 300 L/10a) twice (27 days and 48 days after the planting of the seedlings) on the stems and leaves with a sprayer.
64 days after the start of the tests, all the plants in each lot were examined about the severity level of the disease to assess the frequency of the disease and the disease control value. In the same manner as described above, the frequency of the disease and the disease control value were determined. Additionally, soft rot is a disease with damages hardly controlled, so even a chemical at the level C determined by the tests of the effects can practically be used.

Assay [6] relates to bacteria causing the soft rot (Erwinia carotovora). The assay is described as follows: Inhibition test of growth of bacteria causing soft rot, Reference Test Example 2. The class given is cell-based. Particulars: for formed colonies (growth state), grade: PSA medium, 27 degrees Celsius, 2 days.
Text: Inhibition test of growth of bacteria causing soft rot of potato An inhibition test of the growth of bacteria causing the soft rot was done, when a control agent was directly applied to the bacteria causing the soft rot. A given volume of each pesticide of azoxystrobin (Amistar-20 FLOWABLE [trade name], manufactured by Syngenta Japan K.K.), penthiopyrad (GAIA WG [trade name], manufactured by Mitsui Chemicals Agro, Inc.), flusulfamide (SCABLOCK SC [trade name] manufactured by Mitsui Chemicals Agro, Inc.), and streptomycin (Mycin Wettable powder [trade name] manufactured by Hokko Chemical Industry Co., Ltd.) was added together with a suspension of the bacteria causing the soft rot (Erwinia carotovora) to a preliminarily dissolved PSA culture medium (55 degrees Celsius) for subsequent thorough agitation, which was then spread on a plate for culturing at 27 degrees Celsius for 2 days, to examine the growth state. Subsequently, the formed colonies were examined according to the following three grades. • +: at the same level as the level of non-treated lot.
as §5

Setting [7] is: active ingredient concentration of 1,000 ppm.

Results on three compounds are retold here after patent US20130123287A1, “CONTROL AGENT FOR SOFT ROT AND CONTROL METHOD FOR THE SAME” (ISHIHARA SANGYO KAISHA, LTD., priority 2010, published 2013).

With “1,1′-iminodi(octamethylene)diguanidinium=tris(alkylbenzenesulfonate) [Iminoctadine albesilate salt]”, the Determination of effect result in assay [1] is reported as “B (B: Effective (41 to 60 disease control value))”. Moreover, the “formed colonies (growth state), grade” value in assay [2] (100 ppm active ingredient) is reported as “+, +”; in assay [2] (500 ppm active ingredient), “+, +”; in assay [2] (1000 ppm active ingredient), “+, +”. Besides, in assay [2] (setting [7]), the “inhibition of growth of Erwinia carotovora (in words)” value (“inhibition” below) is “never inhibited the growth”.

With `Cc1ccc(-c2c(Cl)nc(C#N)n2S(=O)(=O)N(C)C)cc1` [Cyazofamid, 4-chloro-2-cyano-N,N-dimethyl-5-p-tolylimidazole-1-sulfoneamide], the Determination of effect entry in assay [3] is listed as “D (D: Poorly effective (20 or smaller disease control value))”; in assay [5], “C (C: Effective at low level (21 to 40 disease control value))”. The “formed colonies (growth state), grade” value is “+, +” in assay [4] (100 ppm active ingredient); “+, +” in assay [4] (500 ppm active ingredient); “+, +” in assay [4] (1000 ppm active ingredient). Besides, the “inhibition” value in assay [4] (setting [7]) is “never inhibited the growth”.

As to `CO/C=C(/C(=O)OC)c1ccccc1Oc1cc(Oc2ccccc2C#N)ncn1` [Azoxystrobin, methyl=(E)-2-{2-[6-(2-cyanophenoxy)pyrimidin-4-yloxy]phenyl}-3-methoxyacrylate], the Determination of effect entry in assay [3] is reported as “C (C: Effective at low level (21 to 40 disease control value))”; in assay [5] it was “B (B: Effective (41 to 60 disease control value))”. Also, the “formed colonies (growth state), grade” value in assay [6] (100 ppm active ingredient) was “+, +”; in assay [6] (500 ppm active ingredient) it was “+, +”; in assay [6] (1000 ppm active ingredient) it was “+, +”. In addition, in assay [6] (setting [7]), the “inhibition” value was “never inhibited the growth”.
